Measured values: US20260209177A1, “1-DEOXYNOJIRIMYCIN DERIVATIVE AND USE THEREOF” (ZHEJIANG UNIVERSITY, priority 2022, published 2026)

System: C57BL/6J mice with Ang II-induced myocardial hypertrophy
Test: Cardiac ultrasonography of mice with Ang II-induced myocardial hypertrophy
Assay type: in vivo, mouse
Details: 10 mg/kg/d intraperitoneal, 4 weeks, FIG. 22
Experimental: Model construction was performed by adopting C57BL/6J wild-type mice with subcutaneous implantation and perfusion of angiotensin II (AngII)/normal saline (Saline) through an Alzet Osmotic Pump 2004. Relevant statistical results were obtained after continuous feeding, modeling and administration for 4 weeks.
Model construction: Weighing and anesthetization were performed, and skin preparation and disinfection were performed in surgical areas. A 1 cm incision above a scapula of a front leg was made by using surgical scissors, wherein the incision was perpendicular to a tail part. The skin was cut carefully without damaging underlying tissues, a subcutaneous tunnel was made under the skin by using hemostatic forceps, the pump with a regulator head was completely pushed into a pocket (pointing toward a tail end of each mouse), and the incision was sutured. […]
In the experiment, a Vinno 6LAB high-resolution ultrasonic detector for small animals was used for detection in a two-dimensional (2D) parasternal short-axis M mode. […] Each indicator was detected for 3-6 cardiac cycles, and a mean value of the measured cardiac cycles was calculated.

`CC(C)(C)C(=O)OC[C@H]1NC[C@H](O)[C@@H](O)[C@@H]1O` [DNJ-5a, ((2R,3R,4R,5S)-3,4,5-trihydroxypiperidin-2-yl)methyl pivalate] was tested, and the “cardiac ultrasonography parameters (EF, FS, LVPWd, LVPWs)” value was “better performance”.
